This is an account of results in patent US20220409617A1, “Drug Formulations and Methods of Treatment for Metabolic Disorders” (The Regents of the University of California, priority 2019, published 2022).

Assay [1] has as its system hepatic mitochondria. In words: Hepatic mitochondrial morphology (NADH/NADPH autofluorescence) after acute treatment. It counts as in vivo, mouse. Here is the method:
To determine whether sphingolipid-like compound 893 also protects from ceramide-induced mitochondrial fragmentation in vivo, a cohort of mice with diet-induced obesity was analyzed. Male, C57BL/6J mice were fed a 45% kcal from fat rodent diet (HFD) or a standard chow diet (10% kcal from fat) for 22-26 weeks. Mitochondrial morphology was compared in freshly resected livers from vehicle- or sphingolipid-like compound 893-treated mice using NADH/NADPH autofluorescence and confocal microscopy. When evaluating mitochondrial morphology, light microscopy has two, significant advantages over electron microscopy: 1) the 3D architecture of the mitochondrial network is readily apparent, and 2) quantitative measurements of mitochondrial shape can be made in a large number of cells in an automated and unbiased manner using image analysis software (FIG. 11). […]
MEFs were washed twice with PBS and fixed with 4% paraformaldehyde for 10 min at RT. […] NADH/NADPH autofluorescence was detected with 740 nm excitation and 450±50 nm detectors using a Mai Tai two-photon laser. Fluorescence microscopy was performed on a Zeiss LSM 780 confocal using a 63× oil objective with a […] numerical aperture (NA) or using a Nikon TE2000-S inverted epifluorescence microscope with a 100× oil objective (1.3 NA) and a Photometrics CoolSNAP ES2 monochrome CCD camera. […]

Assay [2] relates to mouse embryonic fibroblasts. In words: Basal 2-deoxyglucose uptake in fibroblasts. The assay is classed as cell-based. To be noted: 3 h, 893 5 or 10 μM. Here is the method:
Glucose uptake assays were performed using the Glucose-Glo™ uptake Kit according to manufacturer's instructions (cat # J1342, Promega, Madison, Wis.). For basal glucose uptake in MEFs, cells were plated the night before in 96-well black, clear-bottom plates. Cells were treated for 3 h, washed once in PBS, then pulsed with 1 mM 2-DG in glucose-free media containing their respective drug treatments. After 10 min, the reaction was quenched and developed according to manufacturer's protocol. To assay insulin-stimulated glucose uptake, mature adipocytes in 96-well black clear-bottom plates were serum starved for 16 h. Cells were treated in serum-free media supplemented with 0.2% fatty-acid free BSA for 3 h. Cells were washed once in PBS and incubated in glucose-free media with their respective drug treatments, with or without 100 nM bovine insulin, for 15 min. A concentrated 2-DG stock was added directly to wells for 10 min (1 mM final concentration), then the reaction stopped and developed according to manufacturer's protocol.

Assay [3] deals with protein phosphatase 2A (PP2A). To be noted: cited from earlier work.

Turning to `CCCCCCCCc1ccc([C@H]2CCN[C@@H]2CO)cc1.Cl` [compound 893], the “Hepatic mitochondrial morphology (aspect ratio, roundness), HFD-fed mice” value in assay [1] (single oral dose 120 mg/kg at ZT8.5, HFD-fed, treatment-naive mice) was “increasing their tubularity (increased aspect ratio) and reducing their roundness to match controls fed standard chow”. For the same compound, the “Hepatic mitochondrial morphology, lean SD-fed mice” value in assay [1] (single oral dose 120 mg/kg, mice consuming the SD) is on record as “did not significantly alter hepatic mitochondrial morphology”. Further, in assay [2], the Constitutive glucose uptake entry is listed as “constitutive glucose uptake in fibroblasts was reduced”. Also, in assay [3], the “Effect on PP2A” value is “activate protein phosphatase 2A (PP2A)”.
